According to patent US8911984B2, “Tannase, gene encoding same, and process for producing same” (Amano Enzyme Inc., priority 2008, dated 2014):

B1: purified enzyme: tannase purified from Aspergillus awamori NBRC-4033 (IFO-4033), amino acid sequence SEQ ID NO: 5 (protein, listed as Aspergillus awamorii)
chain: MRSPAWASIAITAFAALANAGTPSTLAELCTDSIVKAALPPSEFIKGITIDSDSVTTEVVTNSSFSSEFYPSATIDYCNVTFAYSHDGIDGDQVLLEIWLPAPTNFKNRWLSTGGGGYAINSGDQSLPGGVMYGAASGMTDGGFGGFSNNADTAMLLANGTLNYETLYMFAYKAHRELSLLGKALTRNVYGMSDSDKLYAYYQGCSEGGREGWSQVQRFGDEWDGAIIGAPAFRWSFQQTQHLYSNIVEKTLDYYPPPCELDKIVNETIAACDAMDGKVDWVVARTDLCLLDFDISTIEGKPYSCAASRGTPAQNGTVSAKGIEVAKTIINGLHDSQGRRVYFSYQPTAAFDDAETQYNSTTGQWGLDIDQLGGEYIALLVDKNGTTLDSLDGITYDTLKDWMISGLQEYYSTLQTTWPDLTPFHNAGGKVIHFHGDADFSIPTAASIRYWESVRSIMYPNKDYNSSAEALNEWYRLYTVPGAGHCATNDAMPNGPFPQTNMAVMIDWVENGVVPTTLNATVLQGENEGQNQQLCAWPLRPLWTNNGTTMECVYNQRSIDSWHYDLDAVPMPVY

Assays:
[1] = test system: Tannase; assay: Effect of metallic ion and inhibitor on tannase activity; assay type: biochemical, Aspergillus awamori; details: 30° C. 30 minutes, pH 5.0; for Relative activity (%): no addition = 100%
Experimental: 0.5 mL of a 50 mM citric acid buffer solution (pH 5.0) containing 1% tannic acid (Tannic acid, ACS Reagent [SIGMA]) is added with 0.5 ml of an enzyme solution, […], thereafter adding a 0.2 M acetic acid buffer solution (pH 5.0) containing 2% BSA to terminate the reaction. After terminating the reaction, the reaction solution is stood still in ice for 20 minutes and then centrifuged at 3,000 rpm for 20 minutes. The obtained supernatant is diluted 50 holds and an absorbance at a wavelength of 260 nm is measured. An analytical curve (standard curve) is formed using gallic acid and an enzyme amount that releases 1 μM of gallic acid for 1 minute is assumed to be 1 unit. […] The activity increased by addition of urea.

[2] = test system: tannase derived from Aspergillus awamori; assay: Substrate specificity of tannase (rhodanine method); assay type: biochemical; details: 0.17% tannic acid or 10 mM gallic acid ester, pH 5.0, 37° C., 30 minutes; tannic acid = 100%
Experimental: As described below, the method of Sharma (Anal. Biochem. 279, 85-89, 2000) was modified and substrate specificity was measured.
125 μL of a 50 mM citric acid buffer solution (pH 5.0) containing 0.17% tannic acid or 10 mM gallic acid esters (methyl gallate, ethyl gallate, propyl gallate, and isoamyl gallate) is added with 125 μL of an enzyme solution and incubated at 37° C. for 30 minutes, followed by adding and mixing 300 μL of methanol containing 0.667% Rhodanine, and the reaction solution is stood still for 10 minutes. Next, 200 μL of 0.5 N NaOH is added and mixed and the reaction solution is stood still for 10 minutes. Subsequently, the reaction solution is diluted with 9 mL of distilled water and left for 5 minutes, and an absorbance at a wavelength of 520 nm is measured. An analytical curve (standard curve) was formed using gallic acid and an activity that releases 1 μM of gallic acid for 1 minute is assumed to be 1 unit.
Substrate specificities to tannic acid and gallic acid esters (methyl gallate, ethyl gallate, propyl gallate, and isoamyl gallate) were measured in the above-mentioned measurement method of substrate specificity. When a dissolution activity to tannic acid was assumed to be 100%, a dissolution activity of each of the gallic acid esters was 41% for methyl gallate, 30% for ethyl gallate, 29% for propyl gallate, and 27% for isoamyl gallate.

[3] = pH stability of purified tannase; assay type: biochemical; details: 30° C., 30 minutes
Experimental: (§1) 0.5 mL of a 50 mM citric acid buffer solution (pH 5.0) containing 1% tannic acid (Tannic acid, ACS Reagent [SIGMA]) is added with 0.5 ml of an enzyme solution, and incubated at 37° C. for 30 minutes, thereafter adding a 0.2 M acetic acid buffer solution (pH 5.0) containing 2% BSA to terminate the reaction. After terminating the reaction, the reaction solution is stood still in ice for 20 minutes and then centrifuged at 3,000 rpm for 20 minutes. The obtained supernatant is diluted 50 holds and an absorbance at a wavelength of 260 nm is measured. An analytical curve (standard curve) is formed using gallic acid and an enzyme amount that releases 1 μM of gallic acid for 1 minute is assumed to be 1 unit.
The purified enzyme was treated in each buffer solution (citric acid buffer solutions at pH 3.0, 3.5, 4.0, 4.5, 5.0, 5.5 and 6.0, and phosphate buffer solutions at pH 6.0, 6.5, 7.0, 7.5 and 8.0) at 30° C. for 30 minutes and diluted 5 holds with a 0.2 M acetic acid buffer solution (pH 5.0), and an activity was measured in the above-mentioned measurement method of a tannase activity. Each measurement result was shown as a relative activity, assuming a value of a pH showing the maximum activity as 100% (FIG. 4). The stable pH range was from 3 to 8.

[4] = Optimum reaction pH of tannase; assay type: biochemical; details: 37° C., 30 minutes, 1% tannic acid; citric acid buffer pH 3-6, phosphate buffer pH 6-8
Experimental: as §1
The optimum reaction pH was measured under the reaction condition of 37° C. for 30 minutes in each buffer solution (citric acid buffer solutions at pH 3.0, 3.5, 4.0, 4.5, 5.0, 5.5 and 6.0, and phosphate buffer solutions at pH 6.0, 6.5, 7.0, 7.5 and 8.0) using 1% tannic acid for a substrate. Each measurement result was shown as a relative activity, assuming a value of a pH showing the maximum activity as 100% (FIG. 2). The optimum reaction pH was about 5.5.

[5] = Thermostability of purified tannase (residual activity after thermal treatment); assay type: biochemical; details: 30 minutes, 50 mM citric acid buffer solution (pH 5.0)
Experimental: as §1
The purified enzyme was thermally treated for 30 minutes at each temperature of 30° C., 35° C., 40° C., 45° C., 50° C., 55° C., 60° C., 65° C., 70° C., 75° C. and 80° C. in a 50 mM citric acid buffer solution (pH 5.0), and a residual activity was then measured in the above-mentioned measurement method of a tannase activity. Each measurement result was shown as a residual activity, assuming a thermally untreated activity as 100% (FIG. 3). The purified enzyme had 90% or more of a residual activity in the thermal treatment at 65° C. for 30 minutes and was stable until 65° C.

[6] = Isoelectric point by isoelectric electrophoresis (PhastSystem); assay type: physicochemical
Experimental: When the isoelectric point of the present enzyme was measured by isoelectric electrophoresis using PhastSystem (GE Healthcare Bio-Sciences Ltd.), it was 6.4.

[7] = Optimum reaction temperature of tannase; assay type: biochemical; details: 50 mM citric acid buffer solution (pH 5.0), 30-80° C. tested
Experimental: as §1
According to the above-mentioned measurement method of a tannase activity, the purified enzyme was reacted at reaction temperatures of 30° C., 35° C., 40° C., 45° C., 50° C., 55° C., 60° C., 65° C., 70° C., 75° C. and 80° C. Each measurement result was shown as a relative activity, assuming a value at a temperature showing the maximum activity as 100% (FIG. 1). The optimum reaction temperature was around 70° C.

Row | Molecule | Relative activity (%) ([1]; 20 mM metallic ion or EDTA) | dissolution activity relative to tannic acid [2] [%] | also measured
1 | [Fe+3] [Fe^3+] | 91 | – | –
2 | [Cu+2] [Cu^2+] | 72 | – | –
3 | O=C(OC[C@H]1O[C@@H](OC(=O)c2cc(O)c(O)c(OC(=O)c3cc(O)c(O)c(O)c3)c2)[C@H](OC(=O)c2cc(O)c(O)c(OC(=O)c3cc(O)c(O)c(O)c3)c2)[C@@H](OC(=O)c2cc(O)c(O)c(OC(=O)c3cc(O)c(O)c(O)c3)c2)[C@@H]1OC(=O)c1cc(O)c(O)c(OC(=O)c2cc(O)c(O)c(O)c2)c1)c1cc(O)c(O)c(OC(=O)c2cc(O)c(O)c(O)c2)c1 [tannic acid] | – | 100 | –
4 | NC(N)=O [Urea, urea] | – | – | effect on tannase activity (in words) [1]: increased; Relative activity (%) ([1]; urea 0.4 M): 108%; Relative activity (%) ([1]; urea 0.8 M): 117%; Relative activity (%) ([1]; urea 2 M): 150%; Relative activity (%) ([1]; urea 4 M): 197%
5 | CCCOC(=O)c1cc(O)c(O)c(O)c1 [propyl gallate] | – | 29 | –
6 | CC(C)CCOC(=O)c1cc(O)c(O)c(O)c1 [isoamyl gallate] | – | 27 | –
7 | CCOC(=O)c1cc(O)c(O)c(O)c1 [ethyl gallate] | – | 30 | –
8 | [Zn+2] [Zn^2+] | 82 | – | –
9 | COC(=O)c1cc(O)c(O)c(O)c1 [methyl gallate] | – | 41 | –
10 | O=C(O)CN(CCN(CC(=O)O)CC(=O)O)CC(=O)O [EDTA] | 101 | – | –
11 | [Mg+2] [Mg^2+] | 118 | – | –
12 | [Mn+2] [Mn^2+] | 98 | – | –
13 | [Ca+2] [Ca^2+] | 109 | – | –
14 | B1 | – | – | activity with respect to the maximum activity after treatment within pH 3 to 8 [3]: ≥ 80%; optimum reaction pH [4]: about 5.5; residual activity after thermal treatment ([5]; 65° C., untreated = 100%): ≥ 90%; temperature up to which enzyme is stable [5]: ≤ 65 °C; isoelectric point [6]: 6.4; optimum reaction temperature [7]: around 70 °C
